Assays:
[1] = system: smooth muscle cell (SMC) proliferation; conditions: cited from earlier work
[2] = Solubility/dispersibility of drug in the three formulation approaches; type: physicochemical; conditions: all three formulation approaches; all components first dissolved in a volatile solvent such as ethanol
Description: In all cases the drug was coated onto a balloon from an ethanol solution containing C6-ceramide and the other solvents in each formulation. Once the ethanol evaporated from the surface of the device, the drug was uniformly dispersed over the surface and dissolved within the non-volatile solvent(s). The ethanol was useful in that it decreased the viscosity of the oil/drug mixture thereby promoting uniform coating.

[3] = Physical stability of drug coated on balloon from dimethylsulfoxide/ethanol solution; type: physicochemical
Description: Initially, the deposited lipid form a translucent film, but within an hour or so the deposited material slowly transforms to a white crystallite appearance. The deposition uniformity as measured by microscopy is spotty across the balloon surface. After several days, the white powder continues to transform until it flakes off the balloon and is no longer believed to be in an available state. Decreased availability may be described as the dissolution/deaggregation time of the solid relative to deposition and diffusion within the artery, which prevents it from exerting its effect. Currently, to study the effect of C6-ceramide in animal models, the DMSO/ethanol formulation containing C6-ceramide is coated onto the balloon just prior to insertion into the artery. The role of the solvent is to keep the lipid material in an available film-like state sufficient for it to be rapidly deposited and absorbed quickly in the artery, where it is shown to exert an effect within 15 minutes. However, organic solvents, in which the drug is very soluble, tend to evaporate rapidly and the solvents may also penetrate and affect the balloon performance. Alternative solvents and formulations are needed that permit the drug to remain in a dissolved state yet remain physically stable without changing with time.

CCCCCCCCCCCCC/C=C/[C@@H](O)[C@H](CO)NC(=O)CCCCC [C6-ceramide]
time to initiate activity ([1]; after application of a single dose from an angioplasty balloon): ≤ 15 min | SMC proliferation ([1]; in vitro cell culture and in vivo (rabbit carotid model and pig coronary)): inhibit SMC proliferation | solubility/dispersibility in formulation approaches [2]: sufficiently soluble and/dispersible | physical form of deposited drug over time [3]: physical form of the drug changes with time
